# ChEMBL document CHEMBL4043123, “α-Geminal disubstituted pyrrolidine iminosugars and their C-4-fluoro analogues: Synthesis, glycosidase inhibition and molecular docking studies” (Bioorg Med Chem, 2017)
# pIC50, pKi: −log10 of the molar value. The source made the active and inactive calls. The calls are words filed in the database; no cut-off is given here.
# Legend:
# [1] = target: T1, Alpha-mannosidase (Canavalia ensiformis) (UniProt C0HJB3); test: Inhibition of jack beans alpha-mannosidase […] at 1 mM pre-incubated for 1 hr followed by […] substrate addition by fluorescence detection based assay
# T1 sequence (whole entry): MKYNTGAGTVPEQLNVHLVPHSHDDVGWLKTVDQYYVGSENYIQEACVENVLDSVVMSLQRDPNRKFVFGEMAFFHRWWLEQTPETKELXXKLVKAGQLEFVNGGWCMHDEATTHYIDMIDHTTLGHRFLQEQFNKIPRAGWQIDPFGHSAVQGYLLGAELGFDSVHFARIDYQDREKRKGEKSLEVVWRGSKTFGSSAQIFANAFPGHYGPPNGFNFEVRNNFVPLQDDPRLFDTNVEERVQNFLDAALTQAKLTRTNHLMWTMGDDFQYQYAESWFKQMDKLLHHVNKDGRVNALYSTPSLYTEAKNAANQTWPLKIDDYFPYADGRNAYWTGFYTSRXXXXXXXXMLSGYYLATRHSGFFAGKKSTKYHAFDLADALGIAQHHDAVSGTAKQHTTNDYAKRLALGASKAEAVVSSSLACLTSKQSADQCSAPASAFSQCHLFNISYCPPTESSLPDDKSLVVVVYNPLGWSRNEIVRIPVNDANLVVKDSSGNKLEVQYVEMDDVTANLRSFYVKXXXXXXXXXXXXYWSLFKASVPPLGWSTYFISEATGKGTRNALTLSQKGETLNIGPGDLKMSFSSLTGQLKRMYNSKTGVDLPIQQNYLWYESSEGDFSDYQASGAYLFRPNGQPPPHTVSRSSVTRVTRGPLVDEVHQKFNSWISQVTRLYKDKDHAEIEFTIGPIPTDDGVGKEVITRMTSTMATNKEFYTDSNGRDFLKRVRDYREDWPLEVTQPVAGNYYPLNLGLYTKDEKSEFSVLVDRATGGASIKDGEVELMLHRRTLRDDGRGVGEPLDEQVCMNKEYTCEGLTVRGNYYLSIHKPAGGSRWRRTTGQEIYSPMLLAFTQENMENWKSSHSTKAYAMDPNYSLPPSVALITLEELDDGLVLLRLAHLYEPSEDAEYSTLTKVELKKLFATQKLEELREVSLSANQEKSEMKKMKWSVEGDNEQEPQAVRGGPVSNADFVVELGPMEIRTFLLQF
# Alpha-galactosidase [2] = target: T2, Alpha-galactosidase (Coffea arabica, UniProt Q42656); test: Competitive inhibition of coffee beans alpha-galactosidase pre-incubated for 1 hr followed by p-nitrophenyl-alpha-D-galactopyranoside substrate addition by fluorescence detection based assay
# Escherichia coli = test: Inhibition of Escherichia coli beta-galactosidase at 1 mM pre-incubated for 1 hr followed by p-nitrophenyl-beta-D-galactopyranoside substrate addition by fluorescence detection based assay
# [3] = Inhibition of almond beta-glucosidase pre-incubated for 1 hr followed by p-nitrophenyl-beta-D-glucopyranoside, substrate addition by fluorescence detection based assay; design: species or system Prunus dulcis
# Oryza sativa = test: Inhibition of rice alpha-glucosidase at 1 mM pre-incubated for 1 hr followed by p-nitrophenyl-alpha-D-glucopyranoside substrate addition by fluorescence detection based assay
# Saccharomyces cerevisiae = test: Inhibition of yeast alpha-glucosidase at 1 mM pre-incubated for 1 hr followed by p-nitrophenyl-alpha-D-glucopyranoside substrate addition by fluorescence detection based assay
# [4] = Inhibition of rice alpha-glucosidase pre-incubated for 1 hr followed by p-nitrophenyl-alpha-D-glucopyranoside substrate addition by fluorescence detection based assay; design: species or system Oryza sativa
# [5] = target: Alpha-galactosidase (Coffea arabica) (UniProt Q42656); test: Inhibition of coffee beans alpha-galactosidase at 1 mM pre-incubated for 1 hr followed by p-nitrophenyl-alpha-D-galactopyranoside substrate addition by fluorescence detection based assay
# Prunus dulcis = test: Inhibition of almond beta-glucosidase at 1 mM pre-incubated for 1 hr followed by p-nitrophenyl-beta-D-glucopyranoside, substrate addition by fluorescence detection based assay
# [6] = Inhibition of yeast alpha-glucosidase pre-incubated for 1 hr followed by p-nitrophenyl-alpha-D-glucopyranoside substrate addition by fluorescence detection based assay; design: species or system Saccharomyces cerevisiae
# [7] = Competitive inhibition of almond beta-glucosidase pre-incubated for 1 hr followed by p-nitrophenyl-beta-D-glucopyranoside, substrate addition by fluorescence detection based assay; design: species or system Prunus dulcis
# Alpha-galactosidase [8] = target: T2, Alpha-galactosidase; test: Inhibition of coffee beans alpha-galactosidase pre-incubated for 1 hr followed by p-nitrophenyl-alpha-D-galactopyranoside substrate addition by fluorescence detection based assay
# [9] = Competitive inhibition of Escherichia coli beta-galactosidase pre-incubated for 1 hr followed by p-nitrophenyl-beta-D-galactopyranoside substrate addition by fluorescence detection based assay
# Chain of Alpha-galactosidase (Coffea arabica) (Q42656 16-378 limits assumed): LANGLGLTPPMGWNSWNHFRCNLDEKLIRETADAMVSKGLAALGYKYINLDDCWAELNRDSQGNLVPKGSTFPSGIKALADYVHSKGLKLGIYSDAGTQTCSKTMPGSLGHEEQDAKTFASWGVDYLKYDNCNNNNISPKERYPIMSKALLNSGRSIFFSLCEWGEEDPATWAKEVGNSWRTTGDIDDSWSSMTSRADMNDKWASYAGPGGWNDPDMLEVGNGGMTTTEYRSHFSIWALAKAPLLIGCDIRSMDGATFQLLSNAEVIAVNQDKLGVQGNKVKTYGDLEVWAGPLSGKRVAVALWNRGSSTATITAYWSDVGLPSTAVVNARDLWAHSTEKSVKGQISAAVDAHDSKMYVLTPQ
# T2 sequence (Q42656 whole entry): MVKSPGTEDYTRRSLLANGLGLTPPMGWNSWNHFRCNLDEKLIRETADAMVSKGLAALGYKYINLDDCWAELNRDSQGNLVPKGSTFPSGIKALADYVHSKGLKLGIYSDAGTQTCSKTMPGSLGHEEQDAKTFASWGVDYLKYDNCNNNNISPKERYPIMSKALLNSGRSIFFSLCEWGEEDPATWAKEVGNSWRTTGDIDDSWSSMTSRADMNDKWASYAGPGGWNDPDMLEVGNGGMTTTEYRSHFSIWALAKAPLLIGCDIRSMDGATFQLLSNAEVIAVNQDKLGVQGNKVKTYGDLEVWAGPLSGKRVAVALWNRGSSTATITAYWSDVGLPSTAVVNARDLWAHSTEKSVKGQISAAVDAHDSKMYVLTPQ
SMILES,inhibition [1],pIC50 (Alpha-galactosidase [2]),pKi (Alpha-galactosidase [2]),inhibition (Escherichia coli),pIC50 [3],pKi [3],inhibition (Oryza sativa),inhibition (Saccharomyces cerevisiae),pIC50 [4],pKi [4],inhibition [5],inhibition (Prunus dulcis),pIC50 [6],pKi [6],pIC50 [7],pKi [7],pIC50 (Alpha-galactosidase [8]),pKi (Alpha-galactosidase [8]),pIC50 [9],pKi [9]
O=C(O)[C@@]1(CO)NC[C@@H](O)[C@H]1O,inactive,7.10,7.21,inactive,3.35,3.46,inactive,inactive,–,–,–,–,–,–,–,–,–,–,–,–
OCCN1C[C@H](O)[C@@H](O)[C@H](O)[C@H]1CO [MIGLITOL],inactive,–,–,inactive,–,–,–,inactive,7.30,7.55,inactive,inactive,–,–,–,–,–,–,–,–
O=C(O)[C@]1(CO)NC[C@@H](O)[C@H]1O,inactive,–,–,inactive,–,–,inactive,–,–,–,inactive,inactive,3.12,3.21,–,–,–,–,–,–
OCC1(CO)NC[C@H](F)[C@H]1O,inactive,–,–,inactive,–,–,–,inactive,3.33,3.42,inactive,–,–,–,6.74,6.84,–,–,–,–
OCC1(CO)NC[C@@H](O)[C@H]1O,inactive,7.80,8.10,inactive,–,–,inactive,inactive,–,–,–,inactive,–,–,–,–,–,–,–,–

# More lines, main results first:
inhibition [1],pIC50 (Alpha-galactosidase [2]),pKi (Alpha-galactosidase [2]),inhibition (Escherichia coli),pIC50 [3],pKi [3],inhibition (Oryza sativa),inhibition (Saccharomyces cerevisiae),pIC50 [4],pKi [4],inhibition [5],inhibition (Prunus dulcis),pIC50 [6],pKi [6],pIC50 [7],pKi [7],pIC50 (Alpha-galactosidase [8]),pKi (Alpha-galactosidase [8]),pIC50 [9],SMILES,pKi [9]
inactive,–,–,inactive,–,–,inactive,inactive,–,–,–,inactive,–,–,–,–,3.41,3.44,–,O=C(O)[C@@]1(CO)NC[C@H](F)[C@H]1O,–
inactive,–,–,–,–,–,inactive,inactive,–,–,inactive,inactive,–,–,–,–,–,–,7.19,O=C(O)[C@]1(CO)NC[C@H](F)[C@H]1O,7.29
